# Assays:
# [1] = tested on: K. brevis; experiment: Microscope slide droplet test of additives on living K. brevis; type: cell-based, Karenia brevis; settings: microscopy; drop of Gulf of Mexico marine water with at least hundreds of living K. brevis organisms to start; a droplet of additive solution or about 1 to 0 mg solid added
# [2] = tested on: K. brevis; experiment: K. brevis cell count in test tubes of sea water after adding red tide inhibitors; type: cell-based, Karenia brevis; settings: 10 ml Gulf of Mexico sea water, initial count at least 1 million K. brevis cells per liter; one drop of concentrated solution or 5 mg solid; counted after two minutes
# Experimental: Experiments were performed to determine the K. brevis count with various red tide inhibitors.
# A microscope with magnification up to 2500 times, was used along with a gridded Sedgewick-Rafter counting slide to record K. brevis cell counts. Testing was performed on Gulf of Mexico sea water containing K. brevis with an initial K. brevis cell count of at least 1 million K. brevis cells per liter. Test tubes contained 10 ml. each of this sea water, to which the following salts and other chemicals were added. For a concentrated solution of the additive, one drop is added and for solid additives, 5 mg is added. The test tubes contents containing the additives were gently mixed and then counts tabulated after two minutes.
# Table 1 identifies the additives tested and the resultant cell count.
Compound,Experimental Results [1],Cell Count [2]
C[N+](C)(C)C.[Cl-] [tetamethylammonium chloride],No living K. brevis,
calcium sulfate [Concentrated calcium sulfate solution],No living K. brevis,None
"CN(C)c1ccc2nc3ccc(=[N+](C)C)cc-3sc2c1 [Dilute methylene blue solution, methylene blue]",No living K. brevis,Very few
"[Cl-].[Na+] [Concentrated salt solution, sodium chloride]",No living K. brevis,None
"O=S(=O)([O-])[O-].[Mg+2] [Concentrated magnesium sulfate solution, magnesium sulfate]",No living K. brevis,None
[Ca+2].[OH-].[OH-] [calcium hydroxide],No living K. brevis,
"[O]=[Ca] [Solid calcium oxide, calcium oxide]",,None
CN.Cl [methylammonium chloride],No living K. brevis,
"O=S(=O)([O-])[O-].[Cu+2] [Concentrated copper sulfate solution, copper sulfate]",No living K. brevis,None

# Source: patent US20210347662A1, “METHODS AND APPARATUS FOR CONTROLLING OR […] TIDE” (priority 2020, published 2021)
